Read-outs that look alike come from different tables or passages of the source. [ ]: non-standard residue; d: D form. mDAP = meso-diaminopimelic acid
Experiments:
H. pylori Csd6 = H. pylori Csd6 (Helicobacter pylori, UniProt O25255); test: SPR kinetics and affinity on immobilized Csd6; type: binding, Helicobacter pylori 26695; conditions: for kon: read-out: association rate constant ka; for koff: read-out: dissociation rate constant kd
Experimental: The kinetics and affinity of Csd6 with the synthetic muramyl tetrapeptide and muramyl tripeptide (β-methyl N-acetylmuramic acid-L-Ala^1-γ-D-Glu^2-mDAP^3) as a reaction product were assessed using a Reichert SR7500 surface plasmon resonance (SPR) dual channel instrument (Reichert, Depew, NY). Purified Csd6 in 20 mM sodium acetate, pH 5.5, was immobilized using the standard amino coupling at 20 μl min^−1 on a carboxymethyl dextran hydrogel surface sensor chip (Reichert, Depew, NY) until saturation was achieved. The running buffer B used in all SPR experiments was 20 mM HEPES, pH 7.9, and 150 mM sodium chloride. SPR experiments were performed at 25 °C. The muramyl tetrapeptide or muramyl tripeptide at concentrations of 15.6, 31.3, 62.5, 125, 250, and 500 μM was injected over the Csd6-chip at 30 μl min^−1 for 5 min for association analyses. Subsequently, the running buffer was flowed over the chip for an additional 6 min (30 μl min^−1) for dissociation analyses. Regeneration of the chip was carried out using 20 mM sodium hydroxide. Binding was detected as a change in the refractive index at the surface of the chip as measured by the response unit. A reference flow cell was used to record the response by bovine serum albumin (BSA) as a […], and the response by BSA was subtracted from each sample. SPR data were fit using the Scrubber2 software.
FIGURE 5.

Csd6 [1] = test: Crystal structure of D-Ala-bound Csd6; type: binding, Helicobacter pylori 26695; conditions: native crystal preincubated 2 min with 96 mM D-Ala; 2.04 Å, PDB 4Y4V
Experimental: Native crystals of ligand-free Csd6 were grown at 23 °C by the sitting-drop vapor diffusion method. Sitting drops were prepared by mixing 0.5 μl of the protein solution, 0.1 μl of a 10-fold diluted microseed crystal solution, and 0.4 μl of the reservoir solution (1.5% (v/v) Tacsimate, pH 7.0, 22% (w/v) PEG 3,350, and 100 mM sodium-HEPES, pH 7.5). The microseed crystals were originally obtained with ligand-free Csd6 using the above reservoir solution. The crystals grew to approximate dimensions of 0.2 × 0.1 × 0.05 mm within a few days. X-ray diffraction data for the ligand-free Csd6 (Csd6-unbound) were collected at 100 K using a cryoprotectant solution containing 20% (v/v) glycerol added to the reservoir solution (Table 1). X-ray diffraction data for the D-Ala-bound Csd6 (Csd6-Ala) were collected at 100 K after the native crystal was preincubated for 2 min in a cryoprotectant solution containing both 20% (v/v) glycerol and 96 mM D-Ala, which were added to the reservoir solution (Table 1). The structures of both Csd6-unbound and Csd6-Ala were determined by molecular replacement with the program MolRep ([47]) using the refined model of EMTS-derivatized Csd6. Stereochemistry of the refined models was evaluated using MolProbity ([48]).

LdtMt2 = conditions: positive control for L,D-TPase activity; recombinant LdtMt2 (Ala-55–Ala-408); MALDI-QIT-TOF MS
Csd6 [2] = type: biochemical, Helicobacter pylori 26695; conditions: analyte 5 mM, Csd6 5 μM, 2 h, 37 °C; 20 mM sodium phosphate, pH 6.0, 150 mM sodium chloride; MALDI-QIT-TOF MS
[3] = target: the molecule itself; test: AUC; equilibrium sedimentation; 20 mM Tris-HCl pH 7.9, 150 mM NaCl, 1.5 mM TCEP, 20 °C; 16,000 and 20,000 rpm; Csd6 monomer concentrations 2.74, 3.65 and 4.56 μM
[4] = recombinant hexahistidine-tagged Csd6; cited from earlier work
From the text: In many bacteria, including H. pylori, the peptidoglycan layer is remodeled by a number of cell-wall hydrolases as well as synthetases for the peptidoglycan maturation, regulation of cell-wall growth, cell division, peptidoglycan turnover and recycling, cell lysis, and the release of peptidoglycan fragments for host-pathogen interactions ([18]). In H. pylori, an amidase AmiA ([19]), peptidases Csd1–4, potential regulators Csd5 and CcmA ([20][–][22]), and another peptidase Csd6 ([23]) are required to tailor the peptidoglycan layer to generate the helical cell shape. We have recently reported th ...

[5] = type: biochemical; conditions: muramyl tetrapeptide
[6] = SPR, Reichert SR7500, Csd6 immobilized by amine coupling, 20 mM HEPES, pH 7.9, 150 mM sodium chloride, 25 °C, analyte 15.6-500 μM, Scrubber2 fit, read-out: KD
[7] = muramyl tripeptide vs muramyl tetrapeptide, SPR, Csd6

C[C@@H](N)C(=O)O [D-Ala]
Kd (H. pylori Csd6): 224 µM | kon (H. pylori Csd6): 1.05 M⁻¹ s⁻¹ | koff (H. pylori Csd6): 0.00023 s⁻¹ | binding in crystal structure (in words) (Csd6 [1]): two D-Ala molecules are well ensconced within the active site of monomer A with clear electron density

N[C@H](CCC[C@H](N)C(=O)O)C(=O)O [mDAP, meso-2,6-diaminopimelate]
Kd (H. pylori Csd6): 94 µM | kon (H. pylori Csd6): 1.49 M⁻¹ s⁻¹ | koff (H. pylori Csd6): 0.00014 s⁻¹

β-methyl N-acetylmuramic acid-L-Ala^1-γ-D-Glu^2-mDAP^3 [muramyl tripeptide]
Kd (H. pylori Csd6; [6]): 510 µM | ka relative to that for the muramyl tetrapeptide (H. pylori Csd6; [7]): roughly 3 × | kd relative to that for the muramyl tetrapeptide (H. pylori Csd6; [7]): ~50 ×

β-methyl N-acetylmuramic acid-L-Ala^1-γ-D-Glu^2-mDAP^3-D-Ala^4 ({β‑methyl N‑acetylmuramic acid}-AE[mDAP][dA]-OH; not fully specified (residue 2)) [muramyl tetrapeptide]
Kd (H. pylori Csd6; [6]): 27 µM

β-methyl N-acetylmuramic acid-L-Ala^1-γ-D-Glu^2-mDAP^3-D-Ala^4 [muramyl tetrapeptide]
reaction product upon incubation with LdtMt2 (LdtMt2): not only the muramyl tripeptide (Tri in Fig. 1C) but also the dimeric cross-linked species (Tetra-Tri in Fig. 1C) were detected as the reaction products | reaction product upon incubation with Csd6 (Csd6 [2]): the muramyl tripeptide was detected as the sole reaction product of trimming without any dimeric cross-linked species

β-methyl N-acetylmuramic acid-L-Ala^1-γ-D-Glu^2-mDAP^3-D-Ala^4-D-Ala^5 [muramyl pentapeptide]
reaction product upon incubation with Csd6 (Csd6 [2]): no reaction product could be detected

B1: Helicobacter pylori Csd6 (HP0518), residues Val-13–Lys-330 (enzyme, Helicobacter pylori 26695, UniProt O25255 13-330, looked up)
chain: VGLNASDRLLEIMRLYQKQGLEMVGQKLDSYLADKSFWAEELQNKDTDFGYYQNKQFLFVANKSKPSLEFYEIENNMLKKINSSKALVGSKKGDKTLEGDLATPIGVYRITQKLERLDQYYGVLAFVTNYPNLYDTLKKRTGHGIWVHGMPLNGDRNELNTKGCIAIENPLLSSYDKVLKGEKAFLITYEDKFFPSTKEELSMILSSLFQWKEAWARGDFERYMRFYNPNFTRYDGMKFNAFKEYKKRVFAKNEKKNIAFSSINVIPYPNSQNKRLFYVVFDQDYKAYQHNKLSYSSNSQKELYIEIENNQVSIIMEK
notes: Csd6 (HP0518), L,D-carboxypeptidase of Helicobacter pylori strain 26695, residues Val-13–Lys-330 of the gene product; In the Csd6-Ala crystal, Cys-176 of monomer A is oxidised to sulfenic acid; also called Csd6(13–330); recombinant Csd6; source: E. coli Rosetta2(DE3)pLysS, purified (HiTrap Chelating HP, Superdex 200)
stoichiometry N [3]: 2

B2: Csd6: recombinant H. pylori 26695 Csd6 protein, residues Val-13–Lys-330, with N-terminal His6-containing tag (protein)
chain: VGLNASDRLLEIMRLYQKQGLEMVGQKLDSYLADKSFWAEELQNKDTDFGYYQNKQFLFVANKSKPSLEFYEIENNMLKKINSSKALVGSKKGDKTLEGDLATPIGVYRITQKLERLDQYYGVLAFVTNYPNLYDTLKKRTGHGIWVHGMPLNGDRNELNTKGCIAIENPLLSSYDKVLKGEKAFLITYEDKFFPSTKEELSMILSSLFQWKEAWARGDFERYMRFYNPNFTRYDGMKFNAFKEYKKRVFAKNEKKNIAFSSINVIPYPNSQNKRLFYVVFDQDYKAYQHNKLSYSSNSQKELYIEIENNQVSIIMEK
modifications: left off: His6-containing tag, N-terminal, state not stated
notes: recombinant H. pylori 26695 Csd6 protein, residues Val-13–Lys-330, with N-terminal His6-containing tag
conversion of monomeric tetrapeptides [4]: complete conversion of the monomeric tetrapeptides to tripeptides | L,D-carboxypeptidation activity upon EDTA treatment (in words) [5]: no change upon EDTA treatment

From paper PMC4599014, “The Cell Shape-determining Csd6 Protein from Helicobacter pylori Constitutes a New Family of L,D-Carboxypeptidase*” (The Journal of Biological Chemistry, 2015)
